Type in all cases: cell-based
Experiment [1] has as its system production of IL-10 by dendritic cells derived from monocytes. Briefly: Inhibition of IL-10 production by monocyte-derived dendritic cells stimulated with biofilm of C. acnes. As to conditions: Homo sapiens, Dendritic cell; biofilm of C. acnes phylotype IA1, MOI close to 100, 24 hours stimulation; dexamethasone 300 ng/ml, combination 10 and 25 μg/ml; mean of 3 experiments. As for the experimental part:
(§1) The experiments were performed on co-cultures of immature dendritic cells derived from monocytes, at a final concentration of 1.10^5 cells/ml/well and biofilms or membranes of C. acnes of phylotype IA1 . The monocytes are purified from human blood by negative selection (The EasySep™ Human Monocyte Enrichment Kit, StemCell).
(§2) On Day 0, the monocytes are incubated in a differentiation medium (Gibco Roswell Park Memorial Institute (RPMI), 10% v/v foetal bovine serum (FBS) that has been decomplemented (heated to 56° C. for 30 minutes), 50 ng/ml IL-4 and 100 ng/ml Recombinant Human Granulocyte Macrophage Colony-Stimulating Factor (GM-CSF)). On the 3rd day of culture, half of the medium is replaced by fresh medium. On day 6, the immature dendritic cells are characterised by flow cytometry and stimulated by a biofilm or membranes of C. acnes.
The myrtle extract used in this study is prepared according to example 1. This extract is solubilised and stored at […] in ethanol (10 mg of dry extract prepared according to example 1, in 1 ml of ethanol). The concentration tested is 10 μg/ml.
The extract of Tripterygium wilfordii (Trip extract below) used in this study is prepared according to example 2.

The subject of experiment [2] is production of IL-6 by dendritic cells derived from monocytes. Briefly: Inhibition of IL-6 production by monocyte-derived dendritic cells stimulated with C. acnes membranes. Conditions: Homo sapiens, Dendritic cell; C. acnes phylotype IA1 membranes, 24 hours stimulation; dexamethasone 300 ng/ml, myrtle extract 10 μg/ml, Trip extract 25 μg/ml, combination 10 and 25 μg/ml; mean of 3 experiments. As for the experimental part: as §1, §2
(§3) The membranes of C. acnes are purchased from the Icare laboratory (Saint-Beauzire, France).
(§4) The stimulation of the immature dendritic cells derived from monocytes by the membranes of C. acnes is carried out with a dilution to 1/20 of a solution of membranes in the culture medium (RPMI+10% v/v FBS) at a concentration of 0.15 mg/ml.
(§5) The myrtle extract used in this study is prepared according to example 1. This extract is solubilised and stored at […] in ethanol (10 mg of dry extract prepared according to example 1, in 1 ml of ethanol). […]

Experiment [3] deals with production of IL-12p40 by dendritic cells derived from monocytes. Briefly: Inhibition of IL-12p40 production by monocyte-derived dendritic cells stimulated with C. acnes membranes. Conditions: Homo sapiens, Dendritic cell; C. acnes phylotype IA1 membranes, 24 hours stimulation; dexamethasone 300 ng/ml, myrtle extract 10 μg/ml, Trip extract 25 μg/ml, combination 10 and 25 μg/ml; mean of 3 experiments. On the procedure: as §1, §2, §3, §4, §5

Experiment [4] has as its system production of IL-10 by dendritic cells derived from monocytes. The experiment in a line: Inhibition of IL-10 production by monocyte-derived dendritic cells stimulated with C. acnes membranes. Conditions: Homo sapiens, Dendritic cell; C. acnes phylotype IA1 membranes, 24 hours stimulation; dexamethasone 300 ng/ml, myrtle extract 10 μg/ml, Trip extract 25 μg/ml, combination 10 and 25 μg/ml; mean of 3 experiments. On the procedure: as §1, §2, §3, §4, §5

The subject of experiment [5] is production of IL-8 by dendritic cells derived from monocytes. The experiment in a line: Inhibition of IL-8 production by monocyte-derived dendritic cells stimulated with C. acnes membranes. As to conditions: Homo sapiens, Dendritic cell; C. acnes phylotype IA1 membranes, 24 hours stimulation; dexamethasone 300 ng/ml, myrtle extract 10 μg/ml, Trip extract 25 μg/ml, combination 10 and 25 μg/ml; mean of 3 experiments. On the procedure:
as §1, §2, §3
The stimulation of the immature dendritic cells derived from monocytes by the membranes of C. acnes is carried out with a dilution to 1/20 of a solution of membranes in the culture medium (RPMI+10% v/v FBS) at a concentration of 0.15 mg/ml. […]
Several cytokines are evaluated in this study. IL-6, IL-8, IL-10, and IL-12p40; these cytokines are quantified in multiplex using the Luminex technology (Bioplex 200, Biorad).

Results on one compound are retold here after patent publication US20240165185A1, “COMBINATION OF A MYRTLE EXTRACT AND A TRIPTERYGIUM WILFORDII EXTRACT FOR COMBATING C. ACNES-INDUCED INFLAMMATION” (priority 2021, published 2024).

With `C[C@@H]1C[C@H]2[C@@H]3CCC4=CC(=O)C=C[C@]4(C)[C@@]3(F)[C@@H](O)C[C@]2(C)[C@@]1(O)C(=O)CO` [Dexamethasone, dexamethasone], the inhibition at 0.3 µg/mL worked out at 38.6% in experiment [1]; 76.8% in experiment [2]; 79.5% in experiment [3]; 41.7% in experiment [4]; 47.6% in experiment [5].

By inhibition is commonly meant how much of the control response was suppressed.
